# Test results as given in ChEMBL document CHEMBL3885881, “DrugMatrix”.
# Species on record: Rattus norvegicus
# Experiment: DrugMatrix - Regimen: Daily Repeat
# Assay type: toxicity, organism-based, Sprague-Dawley
# Design: regimen Daily Repeat, gender Male, age 6-8 weeks
# Conditions: in vivo, po, 25 mg/kg, route oral GAVAGE, dose level Low, vehicle .5 % CMC; for ABSOLUTE BASOPHIL / ABSOLUTE EOSINOPHIL / ABSOLUTE LYMPHOCYTE / ABSOLUTE MONOCYTE / ABSOLUTE SEGMENTED NEUTROPHIL / BASOPHIL / EOSINOPHIL / ERYTHROCYTE COUNT / HEMATOCRIT / HEMOGLOBIN / LEUKOCYTE COUNT / LYMPHOCYTE / MEAN CORPUSCULAR HEMOGLOBIN / MEAN CORPUSCULAR HEMOGLOBIN CONCENTRATION / MEAN CORPUSCULAR VOLUME / MONOCYTE / NEUTROPHIL / NUCLEATED RED BLOOD CELLS / PLATELET COUNT: tissue Blood; for ALANINE AMINOTRANSFERASE / ALBUMIN / ALKALINE PHOSPHATASE / ASPARTATE AMINOTRANSFERASE / BLOOD UREA NITROGEN / CARBON DIOXIDE / CHLORIDE / CHOLESTEROL / CREATINE PHOSPHOKINASE / CREATININE / GLUCOSE / LACTATE DEHYDROGENASE / LIPASE / PHOSPHORUS / POTASSIUM / SODIUM / TOTAL BILIRUBIN / TOTAL PROTEIN / URIC ACID: tissue Plasma
compound,measurement,setting,value
Cc1ccc(S(=O)(=O)NC(=O)NN2CCCCCC2)cc1 [TOLAZAMIDE],ABSOLUTE BASOPHIL,"72 h, time 3 day",0 CELLS/uL
same,ABSOLUTE EOSINOPHIL,"72 h, time 3 day",281.67 CELLS/uL
same,ABSOLUTE LYMPHOCYTE,"72 h, time 3 day",14664 CELLS/uL
same,ABSOLUTE MONOCYTE,"72 h, time 3 day",321 CELLS/uL
same,ABSOLUTE SEGMENTED NEUTROPHIL,"72 h, time 3 day",2033.33 CELLS/uL
same,BASOPHIL,"72 h, time 3 day",0%
same,EOSINOPHIL,"72 h, time 3 day",1.67%
same,ERYTHROCYTE COUNT,"72 h, time 3 day",5.23 x10E6/uL
same,HEMATOCRIT,"72 h, time 3 day",32.97%
same,HEMOGLOBIN,"72 h, time 3 day",12.7 G/DL
same,LEUKOCYTE COUNT,"72 h, time 3 day",17.3 x10E3/uL
same,LYMPHOCYTE,"72 h, time 3 day",85%
same,MEAN CORPUSCULAR HEMOGLOBIN,"72 h, time 3 day",24.27 pg
same,MEAN CORPUSCULAR HEMOGLOBIN CONCENTRATION,"72 h, time 3 day",38.53 G/DL
same,MEAN CORPUSCULAR VOLUME,"72 h, time 3 day",63 fL
same,MONOCYTE,"72 h, time 3 day",2%
same,NEUTROPHIL,"72 h, time 3 day",11.33%
same,NUCLEATED RED BLOOD CELLS,"72 h, time 3 day",0 /100WBC
same,PLATELET COUNT,"72 h, time 3 day",1363.33 x10E3/uL
same,ALANINE AMINOTRANSFERASE,"72 h, time 3 day",47.33 u/L
same,ALBUMIN,"72 h, time 3 day",4.3 G/DL
same,ALKALINE PHOSPHATASE,"72 h, time 3 day",373.67 u/L
same,ASPARTATE AMINOTRANSFERASE,"72 h, time 3 day",73.33 u/L
same,BLOOD UREA NITROGEN,"72 h, time 3 day",13.33 mg/dL
same,CARBON DIOXIDE,"72 h, time 3 day",22 mmol/L
same,CHLORIDE,"72 h, time 3 day",102.33 MEQ/L
same,CHOLESTEROL,"72 h, time 3 day",62.67 mg/dL
same,CREATINE PHOSPHOKINASE,"72 h, time 3 day",209.33 u/L
same,CREATININE,"72 h, time 3 day",0.17 mg/dL
same,GLUCOSE,"72 h, time 3 day",152.33 mg/dL
same,LACTATE DEHYDROGENASE,"72 h, time 3 day",265 u/L
same,LIPASE,"72 h, time 3 day",9 u/L
same,PHOSPHORUS,"72 h, time 3 day",13.13 mg/dL
same,POTASSIUM,"72 h, time 3 day",7.02 MEQ/L
same,SODIUM,"72 h, time 3 day",143.5 MEQ/L
same,TOTAL BILIRUBIN,"72 h, time 3 day",0.17 mg/dL
same,TOTAL PROTEIN,"72 h, time 3 day",5.3 G/DL
same,URIC ACID,"72 h, time 3 day",1.97 mg/dL
same,ABSOLUTE BASOPHIL,"120 h, time 5 day",0 CELLS/uL
same,ABSOLUTE EOSINOPHIL,"120 h, time 5 day",87.33 CELLS/uL
same,ABSOLUTE LYMPHOCYTE,"120 h, time 5 day",13745 CELLS/uL
same,ABSOLUTE MONOCYTE,"120 h, time 5 day",575.67 CELLS/uL
same,ABSOLUTE SEGMENTED NEUTROPHIL,"120 h, time 5 day",1458.67 CELLS/uL
same,BASOPHIL,"120 h, time 5 day",0%
same,EOSINOPHIL,"120 h, time 5 day",0.67%
same,ERYTHROCYTE COUNT,"120 h, time 5 day",6.16 x10E6/uL
same,HEMATOCRIT,"120 h, time 5 day",38.13%
same,HEMOGLOBIN,"120 h, time 5 day",13.9 G/DL
same,LEUKOCYTE COUNT,"120 h, time 5 day",15.87 x10E3/uL
same,LYMPHOCYTE,"120 h, time 5 day",86.67%
same,MEAN CORPUSCULAR HEMOGLOBIN,"120 h, time 5 day",22.6 pg
same,MEAN CORPUSCULAR HEMOGLOBIN CONCENTRATION,"120 h, time 5 day",36.47 G/DL
same,MEAN CORPUSCULAR VOLUME,"120 h, time 5 day",61.93 fL
same,MONOCYTE,"120 h, time 5 day",3.67%
same,NEUTROPHIL,"120 h, time 5 day",9%
same,NUCLEATED RED BLOOD CELLS,"120 h, time 5 day",0 /100WBC
same,PLATELET COUNT,"120 h, time 5 day",1264.67 x10E3/uL
same,ALANINE AMINOTRANSFERASE,"120 h, time 5 day",46.67 u/L
same,ALBUMIN,"120 h, time 5 day",4.3 G/DL
same,ALKALINE PHOSPHATASE,"120 h, time 5 day",296.33 u/L
same,ASPARTATE AMINOTRANSFERASE,"120 h, time 5 day",92.67 u/L
same,BLOOD UREA NITROGEN,"120 h, time 5 day",17.33 mg/dL
same,CARBON DIOXIDE,"120 h, time 5 day",23.67 mmol/L
same,CHLORIDE,"120 h, time 5 day",109.33 MEQ/L
same,CHOLESTEROL,"120 h, time 5 day",61.67 mg/dL
same,CREATINE PHOSPHOKINASE,"120 h, time 5 day",320 u/L
same,CREATININE,"120 h, time 5 day",0.19 mg/dL
same,GLUCOSE,"120 h, time 5 day",152.33 mg/dL
same,LACTATE DEHYDROGENASE,"120 h, time 5 day",425.33 u/L
same,LIPASE,"120 h, time 5 day",9 u/L
same,PHOSPHORUS,"120 h, time 5 day",11.2 mg/dL
same,POTASSIUM,"120 h, time 5 day",5.71 MEQ/L
same,SODIUM,"120 h, time 5 day",148.83 MEQ/L
same,TOTAL BILIRUBIN,"120 h, time 5 day",0.17 mg/dL
same,TOTAL PROTEIN,"120 h, time 5 day",6.13 G/DL
same,URIC ACID,"120 h, time 5 day",1.27 mg/dL
